These results are taken from ChEMBL document CHEMBL1240315, “Allosteric inhibition of kinesin-5 modulates its processive directional motility” (Nat Chem Biol, 2006).

Activity calls are given as the source filed them. No cut-off for these calls is given here.

Test [1] addresses T1, Kinesin-like protein KIF11 (Homo sapiens) (UniProt P52732).
T1 sequence (whole entry): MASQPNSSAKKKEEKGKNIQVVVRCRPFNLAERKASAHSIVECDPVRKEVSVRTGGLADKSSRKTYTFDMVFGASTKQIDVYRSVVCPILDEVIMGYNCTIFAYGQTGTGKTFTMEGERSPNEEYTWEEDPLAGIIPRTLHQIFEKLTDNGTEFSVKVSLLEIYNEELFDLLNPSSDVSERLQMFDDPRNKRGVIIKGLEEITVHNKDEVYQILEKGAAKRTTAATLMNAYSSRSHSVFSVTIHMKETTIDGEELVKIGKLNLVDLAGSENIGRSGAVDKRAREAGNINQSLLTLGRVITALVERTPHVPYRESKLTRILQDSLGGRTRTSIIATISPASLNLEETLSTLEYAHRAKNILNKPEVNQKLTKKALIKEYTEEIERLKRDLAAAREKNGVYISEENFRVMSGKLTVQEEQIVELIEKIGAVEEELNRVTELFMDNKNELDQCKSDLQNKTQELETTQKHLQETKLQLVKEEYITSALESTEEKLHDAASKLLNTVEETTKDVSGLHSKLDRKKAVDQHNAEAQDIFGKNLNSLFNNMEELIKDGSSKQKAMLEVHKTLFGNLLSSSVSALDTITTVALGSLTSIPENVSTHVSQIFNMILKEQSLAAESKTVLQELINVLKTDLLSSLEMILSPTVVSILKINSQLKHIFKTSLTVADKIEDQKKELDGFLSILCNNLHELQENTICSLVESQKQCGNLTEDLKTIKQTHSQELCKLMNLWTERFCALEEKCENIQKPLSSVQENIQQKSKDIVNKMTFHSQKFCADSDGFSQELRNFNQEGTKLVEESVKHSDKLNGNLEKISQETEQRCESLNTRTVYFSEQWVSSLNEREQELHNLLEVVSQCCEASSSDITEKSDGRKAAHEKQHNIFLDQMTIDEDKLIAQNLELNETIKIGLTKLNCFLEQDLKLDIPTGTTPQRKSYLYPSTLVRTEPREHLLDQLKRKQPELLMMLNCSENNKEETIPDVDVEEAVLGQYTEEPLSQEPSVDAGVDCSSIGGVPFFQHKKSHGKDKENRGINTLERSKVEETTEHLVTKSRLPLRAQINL
Particulars: 100 uM.
Description: Inhibition of recombinant Eg5-GFP in cell-free system assessed as reduction in mean duration of Eg5-GFP-microtubule interaction at 100 uM by kymograph analysis

Test [2] addresses T1, Kinesin-like protein KIF11 (Homo sapiens). The settings on record: 100 uM. The source holds these as a separate data set.
Description: Inhibition of recombinant Eg5-GFP in cell-free system assessed as reduction of Eg5 motility speed on microtubule at 100 uM by kymograph analysis
Test [3] has the same target. Particulars: 25 uM.
Description: Inhibition of recombinant Eg5-GFP in cell-free system assessed as Eg5 motility speed on microtubule at 25 uM by mean square displacement analysis in presence of 2 mM ATP
For test [4] the target is unchanged. The settings on record: 100 uM. The source holds these as a separate data set.
Description: Inhibition of recombinant Eg5-GFP in cell-free system assessed as Eg5-GFP movement along microtubules without directionality at 100 uM by mean square displacement analysis in presence of 2 mM ADP
Test [5] has the same target. The settings on record: 100 uM. This is another data set of the same source.
Description: Inhibition of recombinant Eg5-GFP in cell-free system assessed as Eg5 motility speed on microtubule at 100 uM by mean square displacement analysis in presence of 2 mM ATP
Test [6] shares this target. As to the kind of experiment: Binding affinity to recombinant Eg5-GFP in cell-free system assessed as Eg5-GFP movement along microtubules without directionality at 2 mM by kymograph analysis.
For test [7] the target is unchanged. In words: Binding affinity to recombinant Eg5-GFP in cell-free system assessed as Eg5-GFP movement along microtubules without directionality at 2 mM by mean square displacement analysis.

Consider `CCOC(=O)C1=C(C)NC(=S)NC1c1cccc(O)c1` (configuration not stated), for which the inhibition result in test [1] and in test [2] was “inactive” in each case. In addition, the values for the Activity (nanometer2/sec) in test [3], in test [4] and in test [5] were 1460, 3820 and 2140, respectively.

In the case of `Nc1ncnc2c1ncn2[C@@H]1O[C@H](COP(=O)(O)OP(=O)(O)O)[C@@H](O)[C@H]1O`, the Activity (nanometer2/sec) in test [6] turned out to be 4; in test [7], 771.
